# Results: patent US20230159509A1 (Amathus Therapeutics, Inc., priority 2020, published 2023)
# Biological target: T1, TRAP1 enzyme (Homo sapiens, UniProt Q12931)
# T1 construct: 150 nM Trap1 enzyme was incubated with various concentrations of the test compound
# T1 sequence (Q12931 60-704): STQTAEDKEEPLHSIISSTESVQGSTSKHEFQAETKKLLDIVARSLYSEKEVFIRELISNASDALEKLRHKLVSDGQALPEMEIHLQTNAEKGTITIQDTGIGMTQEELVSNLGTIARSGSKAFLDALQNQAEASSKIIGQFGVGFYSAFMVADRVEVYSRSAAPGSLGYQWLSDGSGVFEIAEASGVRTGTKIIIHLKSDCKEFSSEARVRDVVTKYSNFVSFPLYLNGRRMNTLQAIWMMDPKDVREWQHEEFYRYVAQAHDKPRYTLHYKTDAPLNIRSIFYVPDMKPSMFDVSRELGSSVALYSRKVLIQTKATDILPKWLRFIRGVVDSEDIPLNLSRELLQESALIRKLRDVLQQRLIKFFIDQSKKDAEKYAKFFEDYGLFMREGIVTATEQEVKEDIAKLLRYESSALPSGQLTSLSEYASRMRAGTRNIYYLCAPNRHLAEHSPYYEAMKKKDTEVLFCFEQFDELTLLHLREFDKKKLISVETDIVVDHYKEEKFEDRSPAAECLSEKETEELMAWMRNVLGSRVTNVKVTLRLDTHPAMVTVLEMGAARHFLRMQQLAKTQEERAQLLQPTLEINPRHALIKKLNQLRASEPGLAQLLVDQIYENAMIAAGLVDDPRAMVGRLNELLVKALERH
# Assay: ADP Glo assay of TRAP1 ATPase activity
# Type: biochemical
# Conditions: for activation at 50 µM: 1 h, compound concentration 50 μM, read-out: ADP-Glo Percent Activation at 50 μM; for EC50: concentration for half maximal activation, read-out: ADP GLO DRC: GeoMean EC50; for Emax: maximal percent activation, read-out: ADP GLO DRC: Mean Emax
# Procedure: Potency of test compounds to modulate the ATPase activity of TRAP1 enzyme was evaluated using ADP Glo assay. The assay is based on quantification of the ADP generated from ATP in the ATPase reaction. The assay is performed in two steps; first, after the ATPase reaction an equal volume of ADP-Glo™ Reagent is added to terminate the ATPase reaction and deplete the remaining ATP. Second, the Kinase Detection Reagent is added to simultaneously convert ADP to ATP and allow the newly synthesized ATP to be measured using a luciferase/luciferin reaction.
# All the assays were carried out in a 384-well Proxiplate. The buffer used was 25 mM Pipes pH-7.5, 40 mM KCl, 0.05 mM MgCl2, 0.025% BSA, 0.316 mM EGTA, 0.003% Empigen, 0.01% Igepal. 150 nM Trap1 enzyme was incubated with various concentrations of the test compound (0.79 μM-100 μM) at 37° C. for 30 mins (except in blank wells). 20 μM ATP was added to each well to start the reaction. The plate was spun for 1 min at 1200 rpm and then incubated at 37° C. for 60 mins. 5 μl of ADP Glo reagent was added to all the wells and spun the plate for 1 min at 1200 rpm and kept it on a shaker at ambient temperature for 60 mins. 10 μl of kinase detection mix was added to all the wells and the plate was read for Luminescence at 495 nm. The amount of ADP released was estimated from ATP/ADP standard curve generated at the same experimental conditions. Emax (Maximal percent activation) and EC50 (concentration for half maximal activation) were estimated by fitting the dose response data to a sigmoidal curve fitting equation using Graphpad Prism software V. 8.
Structure (SMILES),activation at 50 µM [%],EC50 [µM],Emax [%]
"COc1ncc(NC(=O)c2csc(-c3ccccc3)n2)cc1S(=O)(=O)Nc1ccccc1C [compound 1350, N-(6-methoxy-5-(N-(o-tolyl)sulfamoyl)pyridin-3-yl)-2-phenylthiazole-4-carboxamide]",–,< 10,119 to 159
CCN1CCN(Cc2ccccc2C(=O)Nc2cnc(OC)c(S(=O)(=O)Nc3c(C)cccc3C)c2)CC1 [compound 2547],120 to 150,–,–
COc1ncc(NC(=O)c2csc(-c3cc(F)c(F)c(F)c3)n2)cc1S(=O)(=O)Nc1c(C)csc1C [compound 2466],–,< 10,160 to 199
COc1ncc(NC(=O)c2ccnn2CC(F)(F)F)cc1S(=O)(=O)Nc1c(C)cccc1C [compound 2651],181 to 352,–,–
"COc1ncc(NC(=O)c2ccccc2C(=O)c2ccccc2)cc1S(=O)(=O)Nc1ccc(Cl)cc1 [compound 1197, 2-benzoyl-N-(5-(N-(4-chlorophenyl)sulfamoyl)-6-methoxypyridin-3-yl)benzamide]",–,< 10,160 to 199
COc1ncc(NC(=O)c2ccnc(N3CCCCC3)c2)cc1S(=O)(=O)Nc1c(C)cccc1C [compound 2729],181 to 352,–,–
COc1ncc(NC(=O)c2cc3n(n2)CCCC3)cc1S(=O)(=O)Nc1c(C)cccc1C [compound 2573],151 to 180,–,–
COc1ncc(NC(=O)c2cccnc2N2CCOCC2)cc1S(=O)(=O)Nc1c(C)cccc1C [compound 2759],181 to 352,–,–
COc1nc(C(F)(F)F)c(C(=O)Nc2cnc(OC)c(S(=O)(=O)Nc3c(C)cccc3C)c2)s1 [compound 2768],181 to 352,–,–
COc1ncc(NC(=O)c2csc(-c3ccccc3)n2)cc1S(=O)(=O)Nc1cc(C)cnc1C [compound 1792],–,20 to 100,119 to 159
COc1ncc(NC(=O)c2csc(-c3ccccc3OCC(O)CO)n2)cc1S(=O)(=O)Nc1c(C)cccc1C (stereo not drawn) [compound 2427],–,< 10,200 to 300
COc1ncc(NC(=O)c2cnn3c2CCCC3)cc1S(=O)(=O)Nc1c(C)cccc1C [compound 2673],181 to 352,–,–
COc1ncc(NC(=O)c2coc(C3CCCCC3)n2)cc1S(=O)(=O)Nc1c(C)cccc1C [compound 2743],151 to 180,–,–
COc1ncc(NC(=O)c2cc(C(F)(F)F)nn2C)cc1S(=O)(=O)Nc1c(C)cccc1C [compound 2614],120 to 150,–,–
COc1ncc(NC(=O)c2csc(-c3ccccc3)n2)cc1S(=O)(=O)Nc1cccc(C#N)n1 [compound 2142],–,20 to 100,200 to 300
"COc1ncc(NC(=O)c2csc3c2CCCCC3)cc1S(=O)(=O)Nc1c(C)cccc1C [compound 1486, N-(5-(N-(2,6-dimethylphenyl)sulfamoyl)-6-methoxypyridin-3-yl)-5,6,7,8-tetrahydro-4H-cyclohepta[b]thiophene-3-carboxamide]",–,< 10,160 to 199
"COc1ncc(NC(=O)c2cc3c(C)nn(C)c3s2)cc1S(=O)(=O)Nc1c(C)cccc1C [compound 1380, N-(5-(N-(2,6-dimethylphenyl)sulfamoyl)-6-methoxypyridin-3-yl)-1,3-dimethyl-1H-thieno[2,3-c]pyrazole-5-carboxamide]",–,< 10,> 300
"COc1ncc(NC(=O)c2csc(-c3ccccc3)n2)cc1S(=O)(=O)Nc1ccc(Cl)nc1C [compound 1382, N-(5-(N-(6-chloro-2-methylpyridin-3-yl)sulfamoyl)-6-methoxypyridin-3-yl)-2-phenylthiazole-4-carboxamide]",–,20 to 100,200 to 300
"COc1ncc(NC(=O)c2ccc3nccnc3c2)cc1S(=O)(=O)Nc1ccc(Cl)cc1 [compound 1198, N-(5-(N-(4-chlorophenyl)sulfamoyl)-6-methoxypyridin-3-yl) quinoxaline-6-carboxamide]",–,10 to 20,160 to 199
COc1ncc(NC(=O)c2nc3c(s2)CN(C)CC3)cc1S(=O)(=O)Nc1c(C)cccc1C [compound 2594],151 to 180,–,–
COc1ncc(NC(=O)c2ncc(-c3ccccc3)o2)cc1S(=O)(=O)Nc1sc2c(c1C#N)CCCC2 [compound 1519],–,10 to 20,160 to 199
CCc1cccc2sc(NS(=O)(=O)c3cc(NC(=O)c4ncc(-c5ccccc5)o4)cnc3OC)nc12 [compound 1552],–,20 to 100,119 to 159
COc1ncc(NC(=O)c2cccc(CN3CCN(C)CC3)c2)cc1S(=O)(=O)Nc1c(C)cccc1C [compound 2715],120 to 150,–,–
"COc1ncc(NC(=O)c2ncoc2C)cc1S(=O)(=O)Nc1ccc(Cl)cc1 [compound 1959, N-(5-(N-(4-chlorophenyl)sulfamoyl)-6-methoxypyridin-3-yl)-5-methyloxazole-4-carboxamide]",–,10 to 20,160 to 199

# Second part, the compound after the results:
activation at 50 µM [%],EC50 [µM],Emax [%],Structure (SMILES)
151 to 180,–,–,COc1ncc(NC(=O)c2ccc(C3CCN(C)CC3)cc2)cc1S(=O)(=O)Nc1c(C)cccc1C [compound 2745]
120 to 150,–,–,COc1ncc(NC(=O)c2ccc(CN3CCCC3)cc2)cc1S(=O)(=O)Nc1c(C)cccc1C [compound 2751]
181 to 352,–,–,COc1ncc(NC(=O)c2ccc(N(C)C)nc2)cc1S(=O)(=O)Nc1c(C)cccc1C [compound 2788]
151 to 180,–,–,COc1cc(C(=O)Nc2cnc(OC)c(S(=O)(=O)Nc3c(C)cccc3C)c2)n(C)n1 [compound 2627]
120 to 150,–,–,COc1ncc(NC(=O)c2c(C)nn(C)c2Cl)cc1S(=O)(=O)Nc1c(C)cccc1C [compound 2582]
120 to 150,–,–,CCc1oncc1C(=O)Nc1cnc(OC)c(S(=O)(=O)Nc2c(C)cccc2C)c1 [compound 2711]
181 to 352,–,–,COc1ncc(NC(=O)c2ccn(C(C)C)n2)cc1S(=O)(=O)Nc1c(C)cccc1C [compound 2601]
181 to 352,–,–,COc1ncc(NC(=O)c2ccc(N3CCN(C)CC3)nc2)cc1S(=O)(=O)Nc1c(C)cccc1C [compound 2775]
181 to 352,–,–,COc1ncc(NC(=O)c2ccccc2C)cc1S(=O)(=O)Nc1c(C)cccc1C [compound 2548]
181 to 352,–,–,COc1ncc(NC(=O)c2nc(C)cs2)cc1S(=O)(=O)Nc1c(C)cccc1C [compound 2629]
181 to 352,–,–,COc1ncc(NC(=O)c2ccc(S(=O)(=O)NC(C)(C)C)cc2)cc1S(=O)(=O)Nc1c(C)cccc1C [compound 2561]
–,10 to 20,160 to 199,"COc1ncc(NC(=O)c2ccc(Cn3cc(Cl)cn3)cc2)cc1S(=O)(=O)Nc1c(C)cccc1C [compound 1402, 4-((4-chloro-1H-pyrazol-1-yl)methyl)-N-(5(N (2,6dimethylphenyl)sulfamoyl)-6-methoxypyridin-3-yl)benzamide]"
151 to 180,–,–,COc1ncc(NC(=O)c2ccc(C(C)(C)O)cc2)cc1S(=O)(=O)Nc1c(C)cccc1C [compound 2787]
120 to 150,–,–,CCn1cncc1C(=O)Nc1cnc(OC)c(S(=O)(=O)Nc2c(C)cccc2C)c1 [compound 2630]
–,< 10,200 to 300,"COc1ncc(NC(=O)c2cccc3ocnc23)cc1S(=O)(=O)Nc1c(C)cccc1C [compound 1366, N-(5-(N-(2,6-dimethylphenyl)sulfamoyl)-6-methoxypyridin-3-yl)benzo[d]oxazole-4-carboxamide]"
120 to 150,–,–,COc1ncc(NC(=O)c2cnsc2)cc1S(=O)(=O)Nc1c(C)cccc1C [compound 2636]
120 to 150,–,–,COc1ncc(NC(=O)c2ccc3c(c2)nnn3C)cc1S(=O)(=O)Nc1c(C)cccc1C [compound 2541]
120 to 150,–,–,COc1ncc(NC(=O)c2cn(C(C)C)nn2)cc1S(=O)(=O)Nc1c(C)cccc1C [compound 2538]
181 to 352,–,–,COc1ncc(NC(=O)c2ccc(C(C)=O)cc2)cc1S(=O)(=O)Nc1c(C)cccc1C [compound 2597]
151 to 180,–,–,CCc1cc(C(=O)Nc2cnc(OC)c(S(=O)(=O)Nc3c(C)cccc3C)c2)no1 [compound 2690]
151 to 180,–,–,COc1ncc(NC(=O)c2cnn(C)c2Cl)cc1S(=O)(=O)Nc1c(C)cccc1C [compound 2638]
